Test results as given in publication PMC11489133, “Obicetrapib exhibits favorable physiochemical and pharmacokinetic properties compared to previous cholesteryl ester transfer protein inhibitors: An integrated summary of results from non‐human primate studies and clinical trials” (Pharmacology Research & Perspectives, 2024).
Where “and” joins values, the source holds several entries; their conditions need not be identical. Equal values may be shown once. Read-outs that look alike come from different tables or passages of the source.

What was measured:
[1] = ROSE Phase II trial, plasma concentrations of obicetrapib; type: in vivo, humans; conditions: for % Change in Plasma Level: Week 8 to Week 23, mean (SD); for concentration at 8 weeks / concentration at 23 weeks: both sexes, human, plasma, oral, read-out: Mean (SD) Plasma Level; for concentration at 8 weeks: Week 8 (EOT); for concentration at 23 weeks: Week 23, fifteen weeks after the end of treatment
Protocol: (§1) The PK parameters and the effect of food on the bioavailability of obicetrapib in humans have been examined in both Phase I[9] (TA‐8995‐09 CSR, NewAmsterdam Pharma) and Phase II trials.[10], [11], [12], [13] The trials were performed in accordance with the Declaration of Helsinki, Good Clinical Practice Guidelines, and applicable regulatory requirements. Approval was obtained from the relevant ethical review boards for each site. All volunteers provided written informed consent prior to participation. PK parameters were determined using WinNonlin software, version 4.1 or higher (Pharsight/Certara Corporation, USA). Concentrations of obicetrapib were summarized for each treatment group using descriptive statistics.
ROSE (NCT04753606) was a placebo‐controlled, double‐blind, randomized trial conducted to evaluate the efficacy of obicetrapib as an adjunct to high‐intensity statin therapy for reducing LDL‐C and ApoB levels.[11] A secondary endpoint of the trial included assessing plasma concentrations of obicetrapib during and after the end of treatment. […] One hundred twenty participants (mean age: 61.8 years; 55.8% male; 76.7% White; mean BMI: 31.1 kg/m^2) were enrolled at 17 clinical research sites in the United States and randomized in a 1:1:1 ratio to one of three treatment groups: (1) placebo; (2) 5 mg obicetrapib; or (3) 10 mg obicetrapib. The participants were instructed to take their assigned treatment orally with food once daily at approximately the same time each morning for the 8‐week treatment period. After randomization, participants returned to the clinical research site during Weeks 4 and 8 (end of treatment) for PK assessments. Additionally, participants completed follow‐up visits at four, eight, and 15 weeks after the end of treatment (Weeks 12, 16, and 23) for PK assessments. Of the 120 participants randomized in ROSE, 119 (99.2%) completed treatment; all 120 participants randomized were included in the modified Intent‐to‐Treat (mITT) analysis. The PK population (n = 80) included all randomized participants in the mITT population assigned to the two obicetrapib dose groups who had sufficient blood samples collected for valid estimation of PK parameters. Seventy‐seven (96.3%), 79 (98.8%), and 79 (98.8%) participants in the PK population for ROSE were included in the 4‐, 8‐, and 15‐week post‐end of treatment PK analyses, respectively (TA‐8995‐201 CSR, NewAmsterdam Pharma).

[2] = TULIP Phase II trial, plasma concentrations of obicetrapib; type: in vivo, humans; conditions: any of the participants
[3] = as above; type: in vivo, humans; conditions: for % Change in Plasma Level: Week 20 vs EOT, mean (SD); for concentration at 12 weeks / concentration at 20 weeks: both sexes, human, plasma, oral, read-out: Mean (SD) Plasma Level; for concentration at 12 weeks: Week 12 (EOT)
Protocol: as §1
TULIP (NCT01970215) was a placebo‐controlled, double‐blind, randomized parallel‐group trial conducted to evaluate the effects of varying doses of obicetrapib as monotherapy and in combination with moderate‐intensity statin therapy on LDL‐C and HDL‐C levels.[10]
Additionally, the plasma concentrations of obicetrapib were evaluated during and after the treatment period. Eligible participants had mild dyslipidemia defined as LDL‐C levels between 96–174 mg/dL, HDL‐C levels between 31 and 70 mg/dL, and triglyceride levels <400 mg/dL after a washout for those on lipid‐modifying therapies. Three hundred and sixty‐four participants (mean age: 64.7 years; 81.6% male; 98.1% White; mean body mass index [BMI]: 26.0 kg/m^2) were enrolled at 17 clinical research sites in the Netherlands and Denmark and randomized in a […] ratio to one of nine treatment groups: (1) placebo; (2) 1 mg obicetrapib; (3) 2.5 mg obicetrapib; (4) 5 mg obicetrapib; (5) 10 mg obicetrapib; (6) 10 mg atorvastatin; (7) 10 mg obicetrapib plus 20 mg atorvastatin; (8) 10 mg rosuvastatin; or (9) 10 mg obicetrapib plus 10 mg rosuvastatin. The participants were instructed to take their assigned treatment orally with food once daily for the 12‐week treatment period. After randomization, participants returned to the clinical research site for PK assessments at Weeks 8 and 12 (end of treatment). Participants also completed follow‐up visits two and eight weeks after the end of treatment (Weeks 14 and 20) for final safety and PK assessments. Of the 364 participants randomized, 337 (92.6%) completed the trial and were included in the primary analysis. The PK population (n = 242) included all randomized participants who received at least one dose of obicetrapib and had at least one valid plasma drug concentration data assessment; 227 (93.8%) of the participants in the PK population were included in the 8‐week post‐end of treatment PK analysis (TA‐8995‐03 CSR, NewAmsterdam Pharma).

[4] = cited from earlier work
[5] = Phase I food effect trial on obicetrapib bioavailability (TA‐8995‐09); type: in vivo, humans; conditions: for Cmax / AUC / t max: both sexes, human, plasma, oral, 10 mg; for t max: read-out: t max, median (minimum, maximum)
Protocol: as §1
This was an open‐label, randomized, two‐sequence, two‐period, two‐treatment crossover study conducted to evaluate the effect of food on the bioavailability of 10 mg obicetrapib. Thirty healthy adult males and females were randomized to treatment and data were available for 23 participants. In Treatment Period I, participants received a single 10 mg dose of obicetrapib after an overnight fast. In Treatment Period II, participants received a single 10 mg dose of obicetrapib at 30 min following the start of a standardized high‐fat, high‐calorie breakfast that was preceded by an overnight fast. Blood samples were collected at pre‐dose and at intervals over 336 h after dosing in each treatment period. The interval between doses was 49 days. The half‐life of obicetrapib was expected to be less than 6 days; therefore, it was anticipated that 49 days would be well beyond five half‐lives and an adequate washout period (TA‐8995‐09 CSR, NewAmsterdam Pharma).

[6] = Obicetrapib 5 mg + high‐intensity statin
[7] = Obicetrapib 10 mg + high‐intensity statin
[8] = Obicetrapib 10 mg + atorvastatin 20 mg
[9] = Obicetrapib 10 mg + rosuvastatin 10 mg

For `CCOC(=O)N1c2ccc(C(F)(F)F)cc2C(N(Cc2cc(C(F)(F)F)cc(C(F)(F)F)c2)c2ncc(OCCCC(=O)O)cn2)CC1CC` (stereo not shown) [Obicetrapib], the “% Change in Plasma Level” value [1, 6] was −98.5 (1.7) %, the “% Change in Plasma Level” value ([1]; Obicetrapib 5 mg + high‐intensity statin, listed as obicetrapib) was −98.5% and the “% Change in Plasma Level” value [1, 7] was −98.4 (1.9) %. It also gave a concentration at 8 weeks [1, 6] of 254 ng/mL, a concentration at 23 weeks [1, 6] of 2.9 ng/mL and a concentration at 8 weeks [1, 7] of 395 ng/mL. For the same compound, the concentration at 23 weeks [1, 7] was 5.6 ng/mL, the obicetrapib in urine [2] was “not detected” and the “% Change in Plasma Level” value ([3]; Obicetrapib 5 mg) was −97.8 (0.8) %. The “Mean (SD) Plasma Level” value ([3]; Obicetrapib 10 mg + atorvastatin 20 mg, Week 20, eight weeks after the end of treatment) was 10.8 (5.9) ng/mL, the “% Change in Plasma Level” value [3, 8] was −97.4 (1.0) % and the “% Change in Plasma Level” value [3, 9] was −97.3 (1.3) %. The “% Change in Plasma Level” value ([3]; Obicetrapib 10 mg) was −97.7 (0.7) %, the concentration at 12 weeks ([3]; 5 mg, Obicetrapib 5 mg once daily) was 258 ng/mL and the concentration at 20 weeks ([3]; 5 mg, Obicetrapib 5 mg, Week 20, eight weeks after the end of treatment) was 5.9 ng/mL. The concentration at 12 weeks ([3]; 10 mg, Obicetrapib 10 mg once daily) was 408 ng/mL, the concentration at 20 weeks ([3]; 10 mg, Obicetrapib 10 mg, Week 20, eight weeks after the end of treatment) was 9.8 ng/mL and the concentration at 12 weeks [3, 8] was 404 ng/mL. For the same compound, the concentration at 12 weeks [3, 9] was 402 ng/mL, the concentration at 20 weeks ([3]; Obicetrapib 10 mg + rosuvastatin 10 mg, Week 20, eight weeks after the end of treatment) was 11.3 ng/mL and the “decrease of plasma levels” value ([3]; eight weeks after the last dose (Week 20), all treatment groups) was “approximately 97%”. For the same compound, the PSA [4] was 105 Å^2, the “increase of peak and overall systemic exposure (AUC, C max) under fed compared to fasted conditions” value ([5]; 10 mg dose, high‐fat meal) was ~ 1.6 fold and 1.6 fold and the “least‐squares geometric mean of fed versus fasted ratio, AUC0‐t” value ([5]; 10 mg single dose) was 154.9%. For the same compound, the “least‐squares geometric mean of fed versus fasted ratio, AUC0‐∞” value ([5]; 10 mg single dose) was 155.4%, the “least‐squares geometric mean of fed versus fasted ratio, C max” value ([5]; 10 mg single dose) was 158.5% and the “AUC(0‐t), LSGM Ratio (90% CI) (Fed vs. Fasted)” value ([5]; 10 mg single dose, n = 23) was 155 (130, 184). The “AUC(0‐∞), LSGM Ratio (90% CI) (Fed vs. Fasted)” value ([5]; 10 mg single dose, n = 23) was 155 (129, 187), the “C max, LSGM Ratio (90% CI) (Fed vs. Fasted)” value ([5]; 10 mg single dose, n = 23) was 159 (126, 199) and the Cmax ([5]; 10 mg single dose, Fasted, n = 23) was 140 ng/mL. For the same compound, the AUC ([5]; 10 mg single dose, Fasted, n = 23, read-out: AUC(0‐t), LS GM (converted)) was 12400 ng·h/mL, the AUC ([5]; 10 mg single dose, Fasted, n = 23, read-out: AUC(0‐∞), LS GM (converted)) was 16600 ng·h/mL and the Cmax ([5]; 10 mg single dose, Fed (high‐fat, high‐calorie breakfast), n = 23) was 222 ng/mL. The AUC ([5]; 10 mg single dose, Fed, n = 23, read-out: AUC(0‐t), LS GM (converted)) was 19200 ng·h/mL, the AUC ([5]; 10 mg single dose, Fed, n = 23, read-out: AUC(0‐∞), LS GM (converted)) was 25800 ng·h/mL and the t max ([5]; 10 mg single dose, fasted) was 5 h. It also gave a t max ([5]; 10 mg single dose, fed) of 5.5 h.
